From PubChem BioAssay AID292 (DTP/NCI, 2004)
Several values for one entry are separate records, joined by “and”; a condition that tells them apart may be missing. Identical values can stand only once. Inconclusive results and toxic doses are left out.

System: B6C3F1 mice, ip Sarcoma M5076, median survival T/C
Experiment: NCI In Vivo Anticancer Drug Screen. Data for tumor model Sarcoma M5076 (intraperitoneal) in B6C3F1 mice
Conditions: endpoint: median survival time, higher = longer survival
Procedure, shortened: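 The readout is a ratio of survival in drug-treated animals to survival in animals given vehicle alone, taken in mice bearing a transplanted tumour line.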

[1] = dose: 50.0 mg/kg/injection, schedule: Q04DX004 (ip), vehicle: saline with Tween-80
[2] = dose: 100.0 mg/kg/injection, schedule: Q04DX004 (ip), vehicle: saline with Tween-80
[3] = dose: 50.0 mg/kg/injection, schedule: Q04DX004 (ip), vehicle: Klucel (hydroxypropylcellulose) (HPC)
[4] = dose: 100.0 mg/kg/injection, schedule: Q04DX004 (ip), vehicle: Klucel (hydroxypropylcellulose) (HPC)
[5] = dose: 200.0 mg/kg/injection, schedule: Q04DX004 (ip), vehicle: Klucel (hydroxypropylcellulose) (HPC)
[6] = dose: 400.0 mg/kg/injection, schedule: Q04DX004 (ip), vehicle: Klucel (hydroxypropylcellulose) (HPC)
[7] = dose: 800.0 mg/kg/injection, schedule: Q04DX004 (ip), vehicle: Klucel (hydroxypropylcellulose) (HPC)
[8] = dose: 50.0 mg/kg/injection, schedule: Q04DX004 (ip), vehicle: saline

CC(C)(O)/C=C/C(=O)[C@](C)(O)[C@H]1[C@H](O)C[C@@]2(C)[C@@H]3CC=C4[C@@H](C=C(O)C(=O)C4(C)C)[C@]3(C)C(=O)C[C@]12C
T/C (dose: 0.5 mg/kg/injection, schedule: Q04DX004 (ip), vehicle: water): 111 % of control
T/C (dose: 1.0 mg/kg/injection, schedule: Q04DX004 (ip), vehicle: water): 117 % of control
T/C (dose: 1.67 mg/kg/injection, schedule: Q04DX004 (ip), vehicle: water): 113 % of control

CCN(CC)Cc1cc2[nH]c3c4ccc(Cl)cc4ncc3c2cc1OC (tested in a mixture with another compound)
T/C (dose: 18.75 mg/kg/injection, schedule: Q04DX004 (ip), vehicle: saline with Tween-80): 104 % of control
T/C (dose: 25.0 mg/kg/injection, schedule: Q04DX004 (ip), vehicle: saline with Tween-80): 117 % of control
T/C (dose: 37.5 mg/kg/injection, schedule: Q04DX004 (ip), vehicle: saline with Tween-80): 112 % of control
T/C [1]: 110 % of control
T/C (dose: 75.0 mg/kg/injection, schedule: Q04DX004 (ip), vehicle: saline with Tween-80): 99 % of control
T/C [2]: 105 % of control

CCOC(=O)c1cn(C)c2c1C(=O)C(C(=O)OCC)CC(=O)N2 (centres undefined)
T/C (dose: 31.25 mg/kg/injection, schedule: Q04DX004 (ip), vehicle: saline + Tween-80 + alcohol): 100 % of control
T/C (dose: 62.5 mg/kg/injection, schedule: Q04DX004 (ip), vehicle: saline + Tween-80 + alcohol): 101 % of control
T/C (dose: 125.0 mg/kg/injection, schedule: Q04DX004 (ip), vehicle: saline + Tween-80 + alcohol): 94 % of control
T/C (dose: 250.0 mg/kg/injection, schedule: Q04DX004 (ip), vehicle: saline + Tween-80 + alcohol): 92 % of control

COc1cc([C@@H]2c3cc4c(cc3[C@H](O)[C@H]3COC(=O)[C@H]23)OCO4)cc(OC)c1OC
T/C (dose: 2.0 mg/kg/injection, schedule: Q04DX004 (ip), vehicle: saline with Tween-80): 117 % of control
T/C (dose: 5.8 mg/kg/injection, schedule: Q04DX004 (ip), vehicle: saline with Tween-80): 117 % of control
T/C (dose: 15.98 mg/kg/injection, schedule: Q04DX004 (ip), vehicle: saline with Tween-80): 154 % of control
T/C (dose: 44.4 mg/kg/injection, schedule: Q04DX004 (ip), vehicle: saline with Tween-80): 151 % of control

CC1(C)C(=O)NC(=O)c2ccccc21
T/C (dose: 25.0 mg/kg/injection, schedule: Q04DX004 (ip), vehicle: Klucel (hydroxypropylcellulose) (HPC)): 109 % of control

CC(=O)OC1OC(=O)C(C)(C(C)=O)C1C (centres undefined)
T/C (dose: 2.5 mg/kg/injection, schedule: Q04DX004 (ip), vehicle: distilled water + alcohol): 100 % of control
T/C (dose: 5.0 mg/kg/injection, schedule: Q04DX004 (ip), vehicle: distilled water + alcohol): 105 % of control
T/C (dose: 10.0 mg/kg/injection, schedule: Q04DX004 (ip), vehicle: distilled water + alcohol): 104 % of control
T/C (dose: 20.0 mg/kg/injection, schedule: Q04DX004 (ip), vehicle: distilled water + alcohol): 104 % of control
T/C (dose: 40.0 mg/kg/injection, schedule: Q04DX004 (ip), vehicle: distilled water + alcohol): 95 % of control

CC(CN1CC(=O)NC(=O)C1)N1CC(=O)NC(=O)C1 (centres undefined)
T/C (dose: 25.0 mg/kg/injection, schedule: Q04DX005 (ip), vehicle: saline with Tween-80): 118 % of control
T/C (dose: 50.0 mg/kg/injection, schedule: Q04DX005 (ip), vehicle: saline with Tween-80): 103 % of control

CC1=C(N2CCOCC2)C(N2CCOCC2)=C(C)C(=O)C1=O
T/C [3]: 104 % of control
T/C [4]: 100 % of control
T/C [5]: 100 % of control
T/C [6]: 113 % of control
T/C [7]: 95 % of control

O=C1NC2(CN3CCC2CC3)C(=O)N1CN(Cc1ccccc1)c1ccccc1 (centres undefined)
T/C [1]: 97 % of control
T/C [2]: 102 % of control
T/C (dose: 200.0 mg/kg/injection, schedule: Q04DX004 (ip), vehicle: saline with Tween-80): 93 % of control
T/C (dose: 400.0 mg/kg/injection, schedule: Q04DX004 (ip), vehicle: saline with Tween-80): 87 % of control
T/C (dose: 800.0 mg/kg/injection, schedule: Q04DX004 (ip), vehicle: saline with Tween-80): 90 % of control

O=c1[nH]cnc2c1nnn2C1OC(CO)C(O)C1O (centres undefined)
T/C [8]: 105 % of control
T/C (dose: 50.0 mg/kg/injection, schedule: Q04DX004 (ip), vehicle: suspension in saline): 97 % of control
T/C (dose: 100.0 mg/kg/injection, schedule: Q04DX004 (ip), vehicle: saline): 93 % of control
T/C (dose: 100.0 mg/kg/injection, schedule: Q04DX004 (ip), vehicle: suspension in saline): 94 % of control
T/C (dose: 200.0 mg/kg/injection, schedule: Q04DX004 (ip), vehicle: saline): 112 % of control
T/C (dose: 200.0 mg/kg/injection, schedule: Q04DX004 (ip), vehicle: suspension in saline): 98 % of control
T/C (dose: 400.0 mg/kg/injection, schedule: Q04DX004 (ip), vehicle: saline): 101 % of control
T/C (dose: 400.0 mg/kg/injection, schedule: Q04DX004 (ip), vehicle: suspension in saline): 96 % of control
T/C (dose: 800.0 mg/kg/injection, schedule: Q04DX004 (ip), vehicle: saline): 103 % of control
T/C (dose: 800.0 mg/kg/injection, schedule: Q04DX004 (ip), vehicle: suspension in saline): 96 % of control

C[CH2][Sn]([Cl])([CH2]C)[c]1cc[c]([Sn]([Cl])([CH2]C)[CH2]C)cc1
T/C (dose: 0.06 mg/kg/injection, schedule: Q04DX004 (ip), vehicle: Klucel (hydroxypropylcellulose) (HPC)): 102 % of control
T/C (dose: 0.12 mg/kg/injection, schedule: Q04DX004 (ip), vehicle: Klucel (hydroxypropylcellulose) (HPC)): 89 % of control
T/C (dose: 0.25 mg/kg/injection, schedule: Q04DX004 (ip), vehicle: Klucel (hydroxypropylcellulose) (HPC)): 91 % of control
T/C (dose: 0.5 mg/kg/injection, schedule: Q04DX004 (ip), vehicle: Klucel (hydroxypropylcellulose) (HPC)): 101 % of control
T/C (dose: 90.0 micrograms/kg/injection, schedule: Q04DX004 (ip), vehicle: Klucel (hydroxypropylcellulose) (HPC)): 106 % of control
T/C (dose: 150.0 micrograms/kg/injection, schedule: Q04DX004 (ip), vehicle: Klucel (hydroxypropylcellulose) (HPC)): 96 % of control
T/C (dose: 250.0 micrograms/kg/injection, schedule: Q04DX004 (ip), vehicle: Klucel (hydroxypropylcellulose) (HPC)): 100 % of control
T/C (dose: 416.7 micrograms/kg/injection, schedule: Q04DX004 (ip), vehicle: Klucel (hydroxypropylcellulose) (HPC)): 98 % of control
T/C (dose: 694.5 micrograms/kg/injection, schedule: Q04DX004 (ip), vehicle: Klucel (hydroxypropylcellulose) (HPC)): 107 % of control

Oc1c(Cl)cc(Cl)cc1C=NCCSc1ccc(Cl)cc1
T/C [3]: 97 % of control and 121 % of control
T/C [4]: 98 % of control and 117 % of control
T/C [5]: 97 % of control and 110 % of control
T/C [6]: 94 % of control and 112 % of control
T/C [7]: 100 % of control

COc1cc(C(=O)c2cc3c(cc2C)OCO3)cc(OC)c1OC
T/C (dose: 3.75 mg/kg/injection, schedule: Q04DX004 (ip), vehicle: Klucel (hydroxypropylcellulose) (HPC)): 97 % of control
T/C (dose: 7.5 mg/kg/injection, schedule: Q04DX004 (ip), vehicle: Klucel (hydroxypropylcellulose) (HPC)): 109 % of control
T/C (dose: 15.0 mg/kg/injection, schedule: Q04DX004 (ip), vehicle: Klucel (hydroxypropylcellulose) (HPC)): 104 % of control
T/C (dose: 30.0 mg/kg/injection, schedule: Q04DX004 (ip), vehicle: Klucel (hydroxypropylcellulose) (HPC)): 105 % of control
T/C (dose: 37.5 mg/kg/injection, schedule: Q04DX004 (ip), vehicle: Klucel (hydroxypropylcellulose) (HPC)): 110 % of control
T/C (dose: 60.0 mg/kg/injection, schedule: Q04DX004 (ip), vehicle: Klucel (hydroxypropylcellulose) (HPC)): 100 % of control
T/C (dose: 75.0 mg/kg/injection, schedule: Q04DX004 (ip), vehicle: Klucel (hydroxypropylcellulose) (HPC)): 108 % of control and 114 % of control
T/C (dose: 150.0 mg/kg/injection, schedule: Q04DX004 (ip), vehicle: Klucel (hydroxypropylcellulose) (HPC)): 113 % of control and 116 % of control
T/C (dose: 300.0 mg/kg/injection, schedule: Q04DX004 (ip), vehicle: Klucel (hydroxypropylcellulose) (HPC)): 107 % of control

O=NNc1ccccn1
T/C (dose: 3.13 mg/kg/injection, schedule: Q04DX004 (ip), vehicle: saline): 109 % of control
T/C (dose: 6.25 mg/kg/injection, schedule: Q04DX004 (ip), vehicle: saline): 117 % of control
T/C (dose: 18.0 mg/kg/injection, schedule: Q04DX004 (ip), vehicle: saline): 172 % of control
T/C (dose: 25.0 mg/kg/injection, schedule: Q04DX004 (ip), vehicle: saline): 160 % of control
T/C (dose: 30.0 mg/kg/injection, schedule: Q04DX004 (ip), vehicle: saline): 156 % of control
T/C [8]: 184 % of control
